{
  "source": "patent US8822699B2",
  "about": "“Heterocyclic compound and use thereof” (Takeda Pharmaceutical Company Limited, priority 2010, dated 2014)",
  "key": {"[1]": {"tested_on": "Aβ42 (soluble Aβ in hippocampi)", "experiment": "Aβ42 in hippocampi of mice after oral administration (Aβ ELISA)", "assay_type": "in vivo", "conditions": "C57BL/6J mice, 10 mg/kg orally, hippocampi isolated 3 hours after administration, soluble Aβ42 by two-site sandwich ELISA; for inhibition at 10 mg/kg: Mus musculus, po, 3 h, read-out: Aβ42 production inhibitory activity (% inhibition); for Aβ42 production inhibitory activity (% inhibition): 10 mg/kg", "experimental": "C57BL/6J mice (7-10 weeks old) were purchased from CLEA Japan Inc. Mice were housed in groups and kept on a 12 h-light; 12 h-dark schedule. All mice were given ad libitum access to food and water.\nEach test compound was reconstituted in solubilization buffer ([DMSO (Wako)]: [10% Cremophor (Nakarai)+30% polyethylene glycol 400 (Wako)+60% 2 mol/L Citrate buffer (Wako)]=1:9) and orally administrated at 10 mg/kg.\nHippocampi was isolated from animals, 3 hours after test compounds were orally administrated. Hippocampi were homogenized in ice-cold Tris-extraction buffer (50 mmol/L Tris-HCl, pH 7.2, 200 mmol/L sodium chloride, 2% protease-free bovine serum albumin, and 0.01% sodium merthiolate) containing protease inhibitor cocktails (Roche, Switzerland). After centrifugation at 15,000 rpm for 15 minutes, the supernatants were subjected to two-site sandwich ELISA to measure amount of soluble Aβ. Aβ42 was quantitated by two-site sandwich ELISA using BNT77, which recognizes Aβ11-28, as a capture antibody and BC05-HRP as a detector antibody, respectively."}, "[2]": {"tested_on": "Aβ42 production in primary nerve cells", "experiment": "Measurement of amyloid β production inhibition rate using primary nerve cell (Aβ42 sandwich ELISA)", "assay_type": "cell-based", "conditions": "primary nerve cells from cerebral cortex of SD rat fetus, cultured 3 days with compound, culture supernatant, sandwich ELISA for Aβ42, read-out: Aβ42 production inhibitory activity IC50", "experimental": "Measurement of Amyloid β Production Inhibition Rate Using Primary Nerve Cell\nThe primary nerve cells were collected from the cerebral cortex of rat fetus (CLEA Japan, Inc.: SD rat, fetal life 17 days of age), and suspended in a neurobasal medium containing B27 supplement, L-glutamine, penicillin-streptomycin (manufactured by Invitrogen) at 500,000 cells/mL. Then, the suspension was seeded in poly L-lysine-coated 96 well plate (manufactured by SUMITOMO BAKELITE) by 100 μL, and cultured at 37° C., 5% CO2 for 7 days. The medium was completely removed, and a new neurobasal medium was added at 75 μL/well. Thereto was added (75 μL/well) a neurobasal medium supplemented with a 2-fold measurement concentration of an evaluation target compound, and the mixture was cultured for 3 days. The culture supernatant was collected from each well, diluted as appropriate, applied to sandwich ELISA between BNT77 antibody-BA27 antibody (for Aβ40) and sandwich ELISA between BNT77 antibody-3005 antibody (for Aβ42), and the amounts of Aβ40 and Aβ42 were measured.\nThe amyloid β production inhibition rate (%) of the compound was calculated by the following formula. (1−(amyloid β production amount with addition of compound)/(amyloid β production amount without addition of compound))×100\nThe amyloid β production 50% inhibitory rate (IC50 value) was calculated using the statistical analysis software (SAS Preclinical Package) as the concentration of the compound showing 50% inhibition when the amyloid β production amount without addition of the compound is 100%. In addition, a new neurobasal medium was added (75 μL/well) to the cells after collection of the culture supernatant, and the cells were left standing for about 30 min to reach room temperature. Cell-Titer Glo Luminescent Cell Viability Assay (manufactured by Promega) was added at 75 μL/well, and the plate was shaken for 2 min and reacted for about 10 min."}},
  "note": "Read-outs that look alike come from different tables or passages of the source.",
  "data": [
    {"smiles": "COc1cc(-c2nnc3n2CCCC3(Oc2ccc(Cl)c(C(F)(F)F)c2)C(C)(C)O)ccc1-n1cnc(C)n1", "note": "(centres unmarked) [Example 139, 2-{8-[4-chloro-3-(trifluoromethyl)-phenoxy]-3-[3-methoxy-4-(3-methyl-1H-1,2,4-triazol-1-yl)phenyl]-5,6,7,8-tetrahydro-[1,2,4]triazolo[4,3-a]pyridin-8-yl}propan-2-ol]", "values": [
      {"measurement": "inhibition at 10 mg/kg", "setting": "[1]", "result": 22, "unit": "%"},
      {"measurement": "IC50", "setting": "[2]; Rattus norvegicus, 72 h", "result": 40, "unit": "nM"}
    ]},
    {"smiles": "COc1cc(-c2nnc3n2CCCC3(Oc2ccc(C(F)(F)F)cc2)C(C)(C)O)ccc1-c1cnc(C)o1", "note": "(centres unmarked) [Example 104, 2-{3-[3-methoxy-4-(2-methyl-1,3-oxazol-5-yl)phenyl]-8-[4-(trifluoromethyl)phenoxy]-5,6,7,8-tetrahydro[1,2,4]triazolo[4,3-a]pyridin-8-yl}propan-2-ol]", "values": [
      {"measurement": "Aβ42 production inhibitory activity (% inhibition)", "setting": "[1]", "result": 36, "unit": "%"},
      {"measurement": "IC50", "setting": "[2]", "result": 41, "unit": "nM"}
    ]},
    {"smiles": "COc1cc(-c2nnc3n2CCCC3(Oc2cc(F)c(F)c(F)c2)C(C)(C)O)c(F)cc1-c1cnc(C)o1", "note": "(centres unmarked) [Example 162, 2-{3-[2-fluoro-5-methoxy-4-(2-methyl-1,3-oxazol-5-yl)phenyl]-8-(3,4,5-trifluorophenoxy)-5,6,7,8-tetrahydro[1,2,4]triazolo[4,3-a]pyridin-8-yl}propan-2-ol]", "values": [
      {"measurement": "inhibition at 10 mg/kg", "setting": "[1]", "result": 26, "unit": "%"},
      {"measurement": "IC50", "setting": "[2]; Rattus norvegicus, 72 h", "result": 86, "unit": "nM"}
    ]},
    {"smiles": "COc1cc(-c2nnc3n2CCCC3(Oc2cccc(C(F)(F)F)c2)C(C)(C)O)ccc1-c1cnc(C)o1", "note": "(centres unmarked) [Example 103, 2-{3-[3-methoxy-4-(2-methyl-1,3-oxazol-5-yl)phenyl]-8-[3-(trifluoromethyl)phenoxy]-5,6,7,8-tetrahydro[1,2,4]triazolo[4,3-a]pyridin-8-yl}propan-2-ol]", "values": [
      {"measurement": "inhibition at 10 mg/kg", "setting": "[1]", "result": 42, "unit": "%"},
      {"measurement": "IC50", "setting": "[2]; Rattus norvegicus, 72 h", "result": 41, "unit": "nM"}
    ]},
    {"smiles": "COc1cc(-c2nnc3n2CCCC3(Oc2cc(F)c(F)c(F)c2)C(C)(C)O)ccc1-c1cnn(C)c1", "note": "(centres unmarked) [Example 144, 2-{3-[3-methoxy-4-(1-methyl-1H-pyrazol-4-yl)phenyl]-8-(3,4,5-trifluorophenoxy)-5,6,7,8-tetrahydro[1,2,4]triazolo[4,3-a]pyridin-8-yl}propan-2-ol]", "values": [
      {"measurement": "inhibition at 10 mg/kg", "setting": "[1]", "result": 31, "unit": "%"},
      {"measurement": "IC50", "setting": "[2]; Rattus norvegicus, 72 h", "result": 214, "unit": "nM"}
    ]},
    {"smiles": "COc1cc(-c2nnc3n2CCCC3(Oc2ccc(F)c(F)c2)C(C)(C)O)ccc1-c1cnc(C)o1", "note": "(centres unmarked) [Example 92, 2-{8-(3,4-difluorophenoxy)-3-[3-methoxy-4-(2-methyl-1,3-oxazol-5-yl)phenyl]-5,6,7,8-tetrahydro[1,2,4]triazolo[4,3-a]pyridin-8-yl}propan-2-ol]", "values": [
      {"measurement": "Aβ42 production inhibitory activity (% inhibition)", "setting": "[1]", "result": 32, "unit": "%"},
      {"measurement": "IC50", "setting": "[2]; Rattus norvegicus, 72 h", "result": 59, "unit": "nM"}
    ]},
    {"smiles": "COc1cc(-c2nnc3n2CCCC3(Oc2cc(F)cc(F)c2)C(C)(C)O)ccc1-c1cnc(C)o1", "note": "(centres unmarked) [Example 155, 2-{8-(3,5-difluorophenoxy)-3-[3-methoxy-4-(2-methyl-1,3-oxazol-5-yl)phenyl]-5,6,7,8-tetrahydro[1,2,4]triazolo[4,3-a]pyridin-8-yl}propan-2-ol]", "values": [
      {"measurement": "Aβ42 production inhibitory activity (% inhibition)", "setting": "[1]", "result": 56, "unit": "%"},
      {"measurement": "IC50", "setting": "[2]", "result": 28, "unit": "nM"}
    ]},
    {"smiles": "COc1nc(-c2nnc3n2CCCC3(Oc2ccc(F)c(C(F)(F)F)c2)C(C)(C)O)ccc1-n1cnc(C)c1", "note": "(centres unmarked) [Example 2, 2-{8-[4-fluoro-3-(trifluoromethyl)phenoxy]-3-[6-methoxy-5-(4-methyl-1H-imidazol-1-yl)pyridin-2-yl]-5,6,7,8-tetrahydro[1,2,4]triazolo[4,3-a]pyridin-8-yl}propan-2-ol]", "values": [
      {"measurement": "Aβ42 production inhibitory activity (% inhibition)", "setting": "[1]", "result": 48, "unit": "%"},
      {"measurement": "IC50", "setting": "[2]", "result": 19, "unit": "nM"}
    ]},
    {"smiles": "COc1cc(-c2nnc3n2CCCC3(Oc2ccc(Cl)c(F)c2)C(C)(C)O)ccc1-c1cnc(C)o1", "note": "(centres unmarked) [Example 111, 2-{8-(4-chloro-3-fluorophenoxy)-3-[3-methoxy-4-(2-methyl-1,3-oxazol-5-yl)phenyl]-5,6,7,8-tetrahydro[1,2,4]triazolo[4,3-a]pyridin-8-yl}propan-2-ol]", "values": [
      {"measurement": "inhibition at 10 mg/kg", "setting": "[1]", "result": 46, "unit": "%"},
      {"measurement": "IC50", "setting": "[2]", "result": 10, "unit": "nM"}
    ]},
    {"smiles": "COc1cc(-c2nnc3n2CCCC3(Oc2ccc(C(F)(F)F)cc2)C(C)(C)O)ccc1-c1cnc(C)o1", "note": "(centres unmarked) [Example 132, 2-{3-[3-methoxy-4-(2-methyl-1,3-oxazol-5-yl)phenyl]-8-[4-(trifluoromethyl)phenoxy]-5,6,7,8-tetrahydro[1,2,4]triazolo[4,3-a]pyridin-8-yl}propan-2-ol]", "values": [
      {"measurement": "Aβ42 production inhibitory activity (% inhibition)", "setting": "[1]", "result": 58, "unit": "%"},
      {"measurement": "IC50", "setting": "[2]", "result": 19, "unit": "nM"}
    ]}
  ]
}
